Series [1] has as its system periostin-induced itch behavior in mice. Briefly: Scratching behavior after intradermal periostin injection in the dorsal neck of mice. The class given is in vivo, mouse. As for the experimental part:
All behavioral experiments were conducted during the light cycle at ambient temperature (23° C.). Behavioral assessment of scratching behavior was conducted as described previously (Mishra et al., 2011). Briefly, mice were injected intradermal into the nape of the neck with periostin (R&D), histamine, and chloroquine (all Millipore-Sigma) as previously described (Shimada and LaMotte, 2008). Compounds were diluted in PBS and the same was used as a vehicle. […] Scratching behavior was recorded for 30 minutes and data was presented in bouts per 30 minutes for mice. One bout was defined as scratching behavior toward the injection site between lifting the hind leg from the ground and either putting it back on the ground or guarding the paw with the mouth. Injections of periostin, and capsaicin in the mouse cheek itch/pain model were performed as described previously (Shimada and LaMotte, 2008). For eye wipes assay, periostin and capsaicin were dropped on mouse cornea and counted wipes for 1-minute. Injection volume was always 20 μl in mice. For dog's study, periostin (25 μg/25 μl) was injected in the dorsal neck (s.c.) and behavior was recorded and quantified for 30 minutes as “duration of pruritus manifestation” (DPM), as described earlier (Paps et al., 2016). For non-human primate (NHP) studies, periostin (25 μg/100 μl) was injected in the NHP thigh (s.c.) on the lateral side of the upper part of the hind limb; the skin area over the vastus lateralis muscle. The lateral side of the upper part of the hind limb was chosen as an injection site because this location is safe and easy to access when the animal is in a chair. The number of scratches is easily countable in NHP. When different raters separately scored a single tape, the ratings indicated high interrater reliability (coefficient of correlation, r>0.95). This method of itch readout in NHP has been used and accepted (Ko and Naughton, 2000). The behavior was recorded for 30 minutes duration and number of scratches quantified. In NHP, a scratch is defined as one brief (<1 s) episode of scraping contact of the forepaw or hind paw on the skin surface

For series [2], the system named is Integrin αvβ3 on DRG Sensory Neurons. Briefly: Fura-2 calcium imaging of periostin-induced calcium response in cultured DRG sensory neurons. The series is classed as cell-based, mouse. The settings on record: periostin 16 ng/μl. Here is the method:
DRGs were isolated from mice and dissociated in 1 mL of media containing 2.5 U/mL of dispase (Fisher Scientific, Hampton, New Hampshire, United States of America) and 2.5 mg/mL of collagenase (Fisher Scientific, Hampton, New Hampshire, United States of America). After dissociation, the cells were washed with complete media (DMEM (HiMedia Laboratories, Mumbai, India) with 10% FBS (Atlanta Biologicals, Flowery Branch, Georgia, United States of America) and 1% PenStrep (VWR International, Radnor, Pa., United States of America)) and pelleted at 1000 rpm for 15 minutes. Approximately 30 μL of the cell suspension was plated on 18 mm round glass slides with a coating of laminin (Sigma Aldrich, St. Louis, Miss., United States of America) and poly-L-lysine (Sigma Aldrich, St. Louis, Miss., United States of America) and incubated for 1.5 hours. Afterwards, 1 mL of complete media was added, and the cells were incubated overnight. All incubation steps were done at 37° C. with 5% CO2.
Before imaging, cells were incubated in 350 μL of complete media containing 1 μM Fura-2 AM (Enzo Life Sciences, Farmingdale, New York, United States of America) for 30 min at 37° C. with 5% CO2. During imaging, the cells were perfused with a buffer containing the following: 135 mM sodium chloride, 3.2 mM potassium chloride, 2.5 mM magnesium chloride, 2.8 mM calcium chloride, 667 μM monobasic sodium phosphate, 14.2 mM sodium bicarbonate, and 10.9 mM D-glucose (all from VWR International, Radnor, Pennsylvania, United States of America) with a pH between 7.00 and 7.40. The buffer and the holding plate were kept at 37° C. while imaging. Imaging data was collected on a TE200 inverted microscope using NIS Elements software (Nikon, Melville, New York, United States of America). Cells were exposed to 340 nm and 380 nm wavelengths for 100 ms and the A340/A380 ratio was calculated. Traces were analyzed using Excel and responses greater than 10% of the baseline were counted. Each data point in the scatter plots represented one coverslip.
Calcium Imaging: Calcium imaging will be performed on the DRG neurons as previously described (Pitake et al., 2018). Briefly, DRG neurons will be incubated for longer than 30 min in DMEM containing 1 μM of a fluorescent indicator Fura-2 AM (Enzo Life Sciences, Inc., Farmingdale, N.Y., United States of America). The neurons will be perfused in a standard bath solution containing 140 mM NaCl, 5 mM KCl, 2 mM MgCl2, 2 mM CaCl2, 10 mM Hepes and 10 mM D-glucose at pH 7.4 adjusted with NaOH. A calcium-free bath solution will be prepared by omitting 2 mM CaCl2 from the standard bath solution […] adding 5 mM EGTA. Fura-2 fluorescence excited at 340 and 380 nm and emission will be monitored at 510 nm with a digital CCD camera (Andor Clara DR-4152, Andor Technology Ltd, Belfast, United Kingdom). Data will be obtained by every 100 ms using an imaging software (NIS-Elements AR 4.13.04, Nikon Corporation, Tokyo, Japan) and analyzed by Microsoft Excel (Microsoft Corporation, Redmond, Wash., United States of America). Values of calcium responses will be normalized by dividing measured values (F) with average values of initial 5 frames (F0) of each cell and described as F/F0. In this study, changes in each response to an application with F/F0>0.1 will be regarded as positive. Cells not responding to 100 mM KCl, which is applied at the end of each experiment, will be regarded as non-neuronal cells and excluded from analysis.
Periostin (10 ug/ml) will be used to evoke calcium influx. This response has been optimized. The peptide inhibitors will be tested on DRG neurons to measure calcium influx in response to periostin. Data on calcium imaging will be presented by presenting each mouse±SEM. The IC50 value of the inhibitor will also be determined
Additional inhibitors were studied using the calcium imaging method described in Example 3. Briefly, the Fura2-AM calcium imaging method was performed on live dorsal root ganglia (DRG) neurons (ex vivo). […]

For series [3], the system named is BMMC mast cells. Description: Calcium imaging on mast cells. The class given is cell-based, mouse. The note with it: mast cells stimulated with periostin alone. As for the experimental part:
Changes in cytosolic Ca^2+ were assayed using ratiometric Fura-2 AM measurements as described (Cruse et al., 2013). Fluorescence was measured at two excitation wavelengths (340 and 380 nm) and an emission wavelength of 510 nm using a BioTek Neo2 multimode plate reader (BioTek, Winooski, Vt., United States of America). The ratio of fluorescence readings was calculated following subtraction of background fluorescence of cells not loaded with Fura-2 AM.

Regarding `CC(C)[C@H]1C(=O)N[C@@H](CCCN=C(N)N)C(=O)NCC(=O)N[C@@H](CC(=O)O)C(=O)N[C@H](Cc2ccccc2)C(=O)N1C` [cilengitide, cyclo RGDf-n(Me)V], the periostin-induced itch behavior result is reported as “significantly reduced” in series [1] (cilengitide 100 nM i.p. 10 minutes prior to periostin i.d. (5 μg/20 μl)); “significantly reduced” in series [1] (cilengitide 100 nM i.v. 10 minutes prior to periostin i.d. (5 μg/20 μl)); “significantly reduced” in series [1] (periostin and cilengitide mixed together and injected s.c.). The “itch behavior after cilengitide alone” value in series [1] (cilengitide injected alone, no periostin) is “did not induce itch behavior”. For the same molecule, the “comparison of inhibitory effect among routes of injection” value in series [1] (intravenous pre-injection versus i.p. and mix) was “strongest inhibitory effect”. In series [2] (perfusion with 100 nM cilengitide), the periostin-dependent calcium response result is on record as “significantly reduced”.

B1: periostin: fasciclin extracellular matrix protein, endogenous ligand of integrin αvβ3; mouse recombinant used (protein)
chain: NSYYDKVLAHSRIRGRDQGPNVCALQQILGTKKKYFSSCKNWYQGAICGKKTTVLYECCPGYMRMEGMKGCPAVMPIDHVYGTLGIVGATTTQHYSDVSKLREEIEGKGSYTYFAPSNEAWENLDSDIRRGLENNVNVELLNALHSHMVNKRMLTKDLKHGMVIPSMYNNLGLFINHYPNGVVTVNCARVIHGNQIATNGVVHVIDRVLTQIGTSIQDFLEAEDDLSSFRAAAITSDLLESLGRDGHFTLFAPTNEAFEKLPRGVLERIMGDKVASEALMKYHILNTLQCSEAITGGAVFETMEGNTIEIGCEGDSISINGIKMVNKKDIVTKNGVIHLIDEVLIPDSAKQVIELAGKQQTTFTDLVAQLGLASSLKPDGEYTLLAPVNNAFSDDTLSMDQRLLKLILQNHILKVKVGLSDLYNGQILETIGGKQLRVFVYRTAICIENSCMVRGSKQGRNGAIHIFREIIQPAEKSLHDKLRQDKRFSIFLSLLEAADLKDLLTQPGDWTLFAPTNDAFKGMTSEERELLIGDKNALQNIILYHLTPGVYIGKGFEPGVTNILKTTQGSKIYLKGVNETLLVNELKSKESDIMTTNGVIHVVDKLLYPADIPVGNDQLLELLNKLIKYIQIKFVRGSTFKEIPMTVYRPAMTKIQIEGDPDFRLIKEGETVTEVIHGEPVIKKYTKIIDGVPVEITEKQTREERIITGPEIKYTRISTGGGETGETLQKFLQKEVSKVTKFIEGGDGHLFEDEEIKRLLQGDTPAKKIPANKRVQGPRRRSREGRSQ
Take B1: the “scratching behavior after periostin injection” value in series [1] (single i.d. injection 5 μg/20 μl in dorsal neck, within 15 minutes) is listed as “robust scratching behavior”. The “calcium release in mast cells” value in series [3] was “no periostin-dependent change in calcium release”. In addition, the “DRG sensory neurons with periostin-dependent changes in intracellular calcium” value in series [2] was “about 10±2%”.
